In US20120302569A1, “PHENYL-THIAZOLYL INHIBITORS OF PRO-MATRIX METALLOPROTEINASE ACTIVATION” (priority 2011, published 2012):
Counter-ions that a name gives are not always drawn.

Legend:
[1] = target: T1, proMMP13(1-268) (SEQ ID NO:7) (Homo sapiens, UniProt P45452); test: ProMMP13/Plasmin P126 Activation Assay; type: biochemical; details: proMMP13(1-268) activated by plasmin
T1 construct: 6×-histidine tag (C); made in house; host or cells: HEK293 (transient transfection, secreted)
Experimental: ProMMP13/Plasmin P126 Activation Assay
On the day of assay, proMMP13(1-268) (SEQ ID NO:7) purified from HEK293 cells and plasmin were diluted to 160 nM and 320 nM, respectively, in assay buffer. The reaction volume was 50 μL. […] The plate was sealed and incubated for 40 min at 37° C. […] Plasmin was not reactive towards P-126 substrate under these conditions.

[2] = target: T2, proMMP9(20-445;ΔFnII) (SEQ ID NO:6) (Homo sapiens, UniProt P14780, DEL216-390); test: ThermoFluor with proMMP9(20-445;ΔFnII); details: read-out: proMMP9(20-445; ΔFnII) (SEQ ID NO: 6) binding
T2 construct: start methionine (N); made in house; host or cells: E. coli BL21(DE3) RIL
T2 sequence (P14780 with tags, fused parts or gaps DEL216-390): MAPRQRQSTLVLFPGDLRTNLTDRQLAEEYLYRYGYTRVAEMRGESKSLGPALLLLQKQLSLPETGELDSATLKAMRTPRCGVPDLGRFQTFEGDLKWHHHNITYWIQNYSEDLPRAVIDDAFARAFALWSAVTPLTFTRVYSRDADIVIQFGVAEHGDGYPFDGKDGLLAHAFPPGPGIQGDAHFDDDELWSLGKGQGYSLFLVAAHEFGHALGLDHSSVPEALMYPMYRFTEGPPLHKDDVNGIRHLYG
Experimental: (§1) The ThermoFluor® (TF) assay is a 384-well plate-based binding assay that measures thermal stability of proteins (Biomol Screen 2001, 6, 429-40; Biochemistry 2005, 44, 5258-66). The experiments were carried out using instruments available from Johnson & Johnson Pharmaceutical Research & Development, LLC. TF dye used in all experiments was […] (1,8-ANS) (Invitrogen: A-47).
(§2) Compounds were arranged in a pre-dispensed plate (Greiner Bio-one: 781280), wherein compounds were serially diluted in 100% DMSO across 11 columns within a series. Columns 12 and 24 were used as DMSO reference and contained no compound. For multiple compound concentration-response experiments, the compound aliquots (50 nL) were robotically predispensed directly into black 384-well polypropylene PCR microplates (Abgene: TF-0384/k) using a Cartesian Hummingbird liquid handler (DigiLab, Holliston, Mass.). Following compound dispense, protein and dye solutions were added to achieve the final assay volume of 3 μL. The assay solutions were overlayed with 1 μL of silicone oil (Fluka, type DC 200: 85411) to prevent evaporation.
(§3) Assay plates were robotically loaded onto a thermostatically controlled PCR-type thermal block and then heated from 40 to 90° C. at a ramp-rate of 1° C./min for all experiments. Fluorescence was measured by continuous illumination with UV light (Hamamatsu LC6) supplied via fiber optics and filtered through a band-pass filter (380-400 nm; >6 OD cutoff). Fluorescence emission of the entire 384-well plate was detected by measuring light intensity using a CCD camera (Sensys, Roper Scientific) filtered to detect 500±25 nm, resulting in simultaneous and independent readings of all 384 wells. A single image with 20-sec exposure time was collected at each temperature, and the sum of the pixel intensity in a given area of the assay plate was recorded vs temperature and fit to standard equations to yield the Tm (J Biomol Screen 2001, 6, 429-40).
(§4) Thermodynamic parameters necessary for fitting compound binding for each proMMP were estimated by differential scanning calorimetry (DSC) and from ThermoFluor® data. The heat capacity of unfolding for each protein was estimated from the molecular weight and from ThermoFluor® dosing data.
ThermoFluor® with proMMP9(20-445;ΔFnII) (SEQ ID NO:6)
The protein sample preparations included a desalting buffer exchange step via a PD-10 gravity column (GE Healthcare). The desalting buffer exchange was performed prior to diluting the protein to the final assay concentration of 2.8 μM proMMP9(20-445;ΔFnII) (SEQ ID NO:6). The concentration of proMMP9(20-445;ΔFnII) (SEQ ID NO:6) was determined spectrophotometrically based on a calculated extinction coefficient of ε280=39880 M^−1cm^−1, a calculated molecular weight of 28.2 kDa, and calculated pI of 5.5. ThermoFluor® reference conditions were define as follows: 80 μg/mL (2.8 μM) proMMP9(20-445;ΔFnII) (SEQ ID NO:6), 50 μM 1,8-ANS, pH 7.0 Buffer (50 mM HEPES pH 7.0, 100 mM NaCl, 0.001% Tween-20, 2.5 mM MgCl2, 300 μM CaCl2). The thermodynamic parameters for proMMP9(20-445;ΔFnII) (SEQ ID NO:6) are as follows: Tm (° C.)=72 (+/−0.1), ΔUH(Tm) (cal mol^−1)=160000(+/−5000), ΔUS(Tm) (cal mol^−1 K^−1)=434, ΔUCp (cal mol^−1 K^−1)=2400.

[3] = target: T3, proMMP9(67-444;ΔFnII) (SEQ ID NO:5) (Homo sapiens, UniProt P14780, DEL216-390); test: ThermoFluor with proMMP9(67-444;ΔFnII); details: read-out: proMMP9(67-444; ΔFnII) (SEQ ID NO: 5) binding
T3 construct: start methionine (N); made in house; host or cells: E. coli BL21(DE3) RIL
T3 sequence (P14780 with tags, fused parts or gaps DEL216-390): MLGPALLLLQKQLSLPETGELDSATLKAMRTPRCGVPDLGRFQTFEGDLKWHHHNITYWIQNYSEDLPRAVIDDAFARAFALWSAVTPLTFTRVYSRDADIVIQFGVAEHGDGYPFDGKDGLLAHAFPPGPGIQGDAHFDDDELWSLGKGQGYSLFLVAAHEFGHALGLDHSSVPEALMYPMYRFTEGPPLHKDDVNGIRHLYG
Experimental: as §1, §2, §3, §4
ThermoFluor® with proMMP9(67-444;ΔFnII) (SEQ ID NO:5)
The protein sample preparations had to include a desalting buffer exchange step via a PD-10 gravity column (GE Healthcare). The desalting buffer exchange was performed prior to diluting the protein to the final assay concentration of 3.5 μM proMMP9(67-444;ΔFnII) (SEQ ID NO:5). The concentration of proMMP9(67-444;ΔFnII) (SEQ ID NO:5) was determined spectrophotometrically based on a calculated extinction coefficient of ε280=33900 M^−1cm^−1, a calculated molecular weight of 22.6 kDa, and calculated pI of 5.20. ThermoFluor® reference conditions were defined as follows: 80 μg/mL (3.5 μM) proMMP9(67-444;ΔFnII) (SEQ ID NO:5), 50 μM 1,8-ANS, pH 7.0 Buffer (50 mM HEPES pH 7.0, 100 mM NaCl, 0.001% Tween-20, 2.5 mM MgCl2, 300 μM CaCl2). The thermodynamic parameters for proMMP9(67-444;ΔFnII) (SEQ ID NO:5) are as follows: Tm (° C.)=63 (+/−0.1), ΔUH(Tm) (cal mol^−1)=105000(+/−5000), ΔUS(Tm) (cal mol^−1 K^−1)=450, […].

[4] = target: T4, full-length proMMP9(1-707) (SEQ ID NO:1) (Homo sapiens, UniProt P14780, R574P); test: proMMP9/MMP3 P126 Activation Assay; type: biochemical; details: proMMP9(1-707) from HEK293 cells activated by catalytic MMP3
T4 construct: made in house; host or cells: HEK293 (proMMP9, secreted); E. coli (MMP3)
T4 sequence (P14780 20-707 R574P): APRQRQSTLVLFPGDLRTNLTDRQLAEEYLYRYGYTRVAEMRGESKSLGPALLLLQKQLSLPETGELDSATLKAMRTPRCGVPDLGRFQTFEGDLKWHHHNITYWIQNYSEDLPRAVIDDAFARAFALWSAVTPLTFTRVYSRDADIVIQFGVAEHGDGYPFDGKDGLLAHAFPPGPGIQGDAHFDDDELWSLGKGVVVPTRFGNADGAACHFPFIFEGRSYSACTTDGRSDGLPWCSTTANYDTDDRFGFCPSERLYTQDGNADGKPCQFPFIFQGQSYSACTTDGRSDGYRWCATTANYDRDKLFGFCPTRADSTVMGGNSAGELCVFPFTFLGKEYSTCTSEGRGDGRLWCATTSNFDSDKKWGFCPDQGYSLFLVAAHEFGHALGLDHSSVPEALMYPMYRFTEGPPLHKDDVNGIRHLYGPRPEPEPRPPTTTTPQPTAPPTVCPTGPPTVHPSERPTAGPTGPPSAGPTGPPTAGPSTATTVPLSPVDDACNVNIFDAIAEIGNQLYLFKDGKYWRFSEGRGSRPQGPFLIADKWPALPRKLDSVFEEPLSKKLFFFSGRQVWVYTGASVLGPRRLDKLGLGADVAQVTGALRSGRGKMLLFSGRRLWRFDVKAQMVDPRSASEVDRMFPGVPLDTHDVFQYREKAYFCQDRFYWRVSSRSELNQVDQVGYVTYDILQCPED
Experimental: proMMP9/MMP3 P126 Activation Assay
The reaction volume was 50 μL. […] Reactivity of residual MMP3 towards P-126 substrate was minimal under these conditions.

Compound | IC50 [1] [nM] | Kd [2] [nM] | Kd [3] [nM] | IC50 [4] [nM]
CC(C)Oc1ccc(S(N)(=O)=O)cc1Nc1nc(-c2ccc(N3CCNCC3)cc2)cs1 [Example 1, 4-Isopropoxy-3-((4-(4-(piperazin-1-yl)phenyl)thiazol-2-yl)amino)benzenesulfonamide.TFA] | 230 | 15 | 6 | 20
CC(C)Oc1ccc(S(N)(=O)=O)cc1Nc1nc(-c2ccc(N3CCNCC3)c(Br)c2)cs1 [Example 2, 3-((4-(3-Bromo-4-(piperazin-1-yl)phenyl)thiazol-2-yl)amino)-4-isopropoxybenzenesulfonamide.TFA] | 560 | 17 | 15 | 67
CC(C)Oc1ccc(S(N)(=O)=O)cc1Nc1nc(-c2ccc(N3CCN(C)CC3)cc2)cs1 [Example 3, 4-Isopropoxy-3-((4-(4-(4-methylpiperazin-1-yl)phenyl)thiazol-2-yl)amino)benzenesulfonamide.HCl] | 390 | 88 | 88 | 74
CC(C)Oc1ccc(S(N)(=O)=O)cc1Nc1nc(-c2ccc(CN3CCN(C(C)C)CC3)cc2)cs1 [Example 57, 4-isopropoxy-3-((4-(4-((4-isopropylpiperazin-1-yl)methyl)phenyl)thiazol-2-yl)amino)benzenesulfonamide.TFA] | 4000 |  |  | 150
CC(C)Oc1ccc(S(N)(=O)=O)cc1Nc1nc(-c2ccc(CN3CCOCC3)cc2)cs1 [Example 59, 4-isopropoxy-3-((4-(4-(morpholinomethyl)phenyl)thiazol-2-yl)amino)benzenesulfonamide.TFA] |  | 98 | 180 | 300
COc1ccc(F)cc1Nc1nc(-c2ccc(CN3CCN(C4CC4)CC3)cc2)cs1 [Example 60, 4-(4-((4-cyclopropylpiperazin-1-yl)methyl)phenyl)-N-(5-fluoro-2-methoxyphenyl)thiazol-2-amine.TFA] |  | 35000 | 9400 | 930
COc1ccc(F)cc1Nc1nc(-c2ccc(CN3CC[C@@H](F)C3)cc2)cs1 [Example 61, (R)—N-(5-fluoro-2-methoxyphenyl)-4-(4-((3-fluoropyrrolidin-1-yl)methyl)phenyl)thiazol-2-amine.TFA] |  | 53000 | 5600 | 1500
COc1ccc(F)cc1Nc1nc(-c2ccc(CN3CCC(F)CC3)cc2)cs1 [Example 62, N-(5-fluoro-2-methoxyphenyl)-4-(4-((4-fluoropiperidin-1-yl)methyl)phenyl)thiazol-2-amine.TFA] |  | 45000 | 5700 | 1600
COc1ccc(F)cc1Nc1nc(-c2ccc(CN3CCN(C(C)C)CC3)cc2)cs1 [Example 63, N-(5-fluoro-2-methoxyphenyl)-4-(4-((4-isopropylpiperazin-1-yl)methyl)phenyl)thiazol-2-amine.TFA] |  | 4600 | 960 | 250
COc1ccc(F)cc1Nc1nc(-c2ccc(OCCN3CCN(C4CC4)CC3)cc2)cs1 [Example 70, 4-(4-(2-(4-cyclopropylpiperazin-1-yl)ethoxy)phenyl)-N-(5-fluoro-2-methoxyphenyl)thiazol-2-amine.TFA] |  | > 76000 | 2100 | 480

Results, then the compound that gave them:

IC50 [1] [nM] | Kd [2] [nM] | Kd [3] [nM] | IC50 [4] [nM] | Compound
 | 48000 | 6200 | 2000 | COc1ccc(F)cc1Nc1nc(-c2ccc(CN3CCOCC3)cc2)cs1 [Example 64, N-(5-fluoro-2-methoxyphenyl)-4-(4-(morpholinomethyl)phenyl)thiazol-2-amine.TFA]
 | > 19000 | 4900 | ≥ 20000 | CC(C)Oc1ccc(F)cc1Nc1nc(-c2ccc(OCCN3CCOCC3)cc2)cs1 [Example 65, N-(5-fluoro-2-isopropoxyphenyl)-4-(4-(2-morpholinoethoxy)phenyl)thiazol-2-amine.TFA]
 | > 19000 | 2900 | 1800 | COc1ccc(F)cc1Nc1nc(-c2ccc(OCCN3CCOCC3)cc2)cs1 [Example 66, N-(5-fluoro-2-methoxyphenyl)-4-(4-(2-morpholinoethoxy)phenyl)thiazol-2-amine.TFA]
 | > 9000 | 7700 | ≥ 20000 | COc1ccc(F)cc1Nc1nc(-c2ccc(OCCN3CCC(F)(F)CC3)cc2)cs1 [Example 67, 4-(4-(2-(4,4-difluoropiperidin-1-yl)ethoxy)phenyl)-N-(5-fluoro-2-methoxyphenyl)thiazol-2-amine.TFA]
 | > 19000 | 2600 | 1300 | COc1ccc(F)cc1Nc1nc(-c2ccc(OCCN3CCC(F)CC3)cc2)cs1 [Example 68, N-(5-fluoro-2-methoxyphenyl)-4-(4-(2-(4-fluoropiperidin-1-yl)ethoxy)phenyl)thiazol-2-amine.TFA]
 | 44000 | 1800 | 200 | COc1ccc(F)cc1Nc1nc(-c2ccc(OCCCN3CCOCC3)cc2)cs1 [Example 71, N-(5-fluoro-2-methoxyphenyl)-4-(4-(3-morpholinopropoxy)phenyl)thiazol-2-amine.TFA]
